From US8987195B2 (priority 2012, dated 2015)
pEC50, pIC50: −log10 of the molar value. Read-outs that look alike come from different tables or passages of the source.

Tests used:
[1] = test system: HCV genotype 1b replicon; experiment: HCV replicon assay, genotype 1b replicon EC50; type: cell-based, Hepatitis C virus; settings: Hepatitis C virus, HCV replicon, genotype 1b, read-out: EC50 [gt-1b]
In short: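 Potency comes from a four-parameter fit of signal as percent of DMSO control. Replicon-bearing cells were treated 24-48 hours with a compound dilution series in absence of G418, and replicon RNA was quantified normalized to cyclophilin A RNA, or luciferase read.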

[2] = molecular target: HCV NS3/4A protease genotype 1b (Hepatitis C virus genotype 1b, UniProt P26663); experiment: HCV NS3/4A protease time-resolved fluorescence (TRF) assay, Ki against genotype 1b; type: biochemical; settings: IC50 [gt-1b], NS3/4A protease TRF assay, genotype 1b enzyme 0.2 nM
In short: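 Enzyme 0.2 nM 1b / 0.4 nM A156T / 0.025 nM 3a; 30 min preinc. w/ cpd; 25 nM TRF peptide; 2.5 h RT; ex 340/em 615 time-delayed; 4-param IC50 → Ki = IC50/(1+[S]/KM).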

Work on `CCc1nc2ccc(OC)cc2c2c1O[C@]1(CC2)C[C@H]2C(=O)N[C@]3(C(=O)NS(=O)(=O)C4(C)CC4)C[C@H]3/C=C\CCCCC[C@H](NC(=O)c3ccn(CC)n3)C(=O)N2C1` [Example 467, (2R,6S,12Z,13aS,14aR,16aS)-5′-ethyl-6-{[(1-ethyl-1H-pyrazol-3-yl)carbonyl]amino}-9′-methoxy-N-[(1-methylcyclopropyl)sulfonyl]-5,16-dioxo-1,1′,2′,6,7,8,9,10,11,13a,14,15,16,16a-tetradecahydrospiro[cyclopropa[e]pyrrolo[1,2-a][1,4]diazacyclopentadecine-2,3′-pyrano[2,3-c]quinoline]-14a(5H)-carboxamide] yielded a pEC50 [1] of 8.33 and a pIC50 [2] of 10.55.

`CCc1nc2ccc(OC)cc2c2c1O[C@]1(CC2)C[C@H]2C(=O)N[C@]3(C(=O)NS(=O)(=O)C4(C)CC4)C[C@H]3/C=C\CCCCC[C@H](NC(=O)c3ccn(C(F)F)n3)C(=O)N2C1` [Example 468, (2R,6S,12Z,13aS,14aR,16aS)-6-({[1-(difluoromethyl)-1H-pyrazol-3-yl]carbonyl}amino)-5′-ethyl-9′-methoxy-N-[(1-methylcyclopropyl)sulfonyl]-5,16-dioxo-1,1′,2′,6,7,8,9,10,11,13a,14,15,16,16a-tetradecahydrospiro[cyclopropa[e]pyrrolo[1,2-a][1,4]diazacyclopentadecine-2,3′-pyrano[2,3-c]quinoline]-14a(5H)-carboxamide] was tested, and the pEC50 [1] was 8.15 and the pIC50 [2] was 10.51.

Compound `CCc1nc2ccc(OC)cc2c2c1O[C@]1(CC2)C[C@H]2C(=O)N[C@]3(C(=O)NS(=O)(=O)C4(C)CC4)C[C@H]3/C=C\CCCCC[C@H](NC(=O)c3cc[nH]n3)C(=O)N2C1` [Example 469, (2R,6S,12Z,13aS,14aR,16aS)-5′-ethyl-9′-methoxy-N-[(1-methylcyclopropyl)sulfonyl]-5,16-dioxo-6-[(1H-pyrazol-3-ylcarbonyl)amino]-1,1′,2′,6,7,8,9,10,11,13a,14,15,16,16a-tetradecahydrospiro[cyclopropa[e]pyrrolo[1,2-a][1,4]diazacyclopentadecine-2,3′-pyrano[2,3-c]quinoline]-14a(5H)-carboxamide] has a pEC50 [1] of 7.31 and a pIC50 [2] of 10.80.

Compound `CCc1nc2ccc(OCCN3CCOCC3)cc2c2c1O[C@]1(CC2)C[C@H]2C(=O)N[C@]3(C(=O)NS(=O)(=O)C4(C)CC4)C[C@H]3/C=C\CCCCC[C@H](NC(=O)OC(C)(C)C)C(=O)N2C1` [Example 470, tert-butyl {(2R,6S,12Z,13aS,14aR,16aS)-5′-ethyl-14a-{[(1-methylcyclopropyl)sulfonyl]carbamoyl}-9′-[2-(morpholin-4-yl)ethoxy]-5,16-dioxo-1,1′,2′,5,6,7,8,9,10,11,13a,14,14a,15,16,16a-hexadecahydrospiro[cyclopropa[e]pyrrolo[1,2-a][1,4]diazacyclopentadecine-2,3′-pyrano[2,3-c]quinolin]-6-yl}carbamate] has a pEC50 [1] of 8.24 and a pIC50 [2] of 10.96.

Compound `CC(C)COC(=O)N[C@H]1CCCCC/C=C\[C@@H]2C[C@@]2(C(=O)NS(=O)(=O)C2(C)CC2)NC(=O)[C@@H]2C[C@]3(CCc4c(c(C(F)(F)F)nc5ccc(OCCN6CCOCC6)cc45)O3)CN2C1=O` [Example 471, 2-methylpropyl [(2R,6S,12Z,13aS,14aR,16aS)-14a-{[(1-methylcyclopropyl)sulfonyl]carbamoyl}-9′-[2-(morpholin-4-yl)ethoxy]-5,16-dioxo-5′-(trifluoromethyl)-1,1′,2′,5,6,7,8,9,10,11,13a,14,14a,15,16,16a-hexadecahydrospiro[cyclopropa[e]pyrrolo[1,2-a][1,4]diazacyclopentadecine-2,3′-pyrano[2,3-c]quinolin]-6-yl]carbamate] has a pEC50 ([1]; HCl salt) of 8.51 and a pIC50 ([2]; HCl salt) of 10.68.

Work on `CC(C)(C)COC(=O)N[C@H]1CCCCC/C=C\[C@@H]2C[C@@]2(C(=O)NS(=O)(=O)C2(C)CC2)NC(=O)[C@@H]2C[C@]3(CCc4c(c(C(F)(F)F)nc5ccc(OCCN6CCOCC6)cc45)O3)CN2C1=O` [Example 472, 2,2-dimethylpropyl [(2R,6S,12Z,13aS,14aR,16aS)-14a-{[(1-methylcyclopropyl)sulfonyl]carbamoyl}-9′-[2-(morpholin-4-yl)ethoxy]-5,16-dioxo-5′-(trifluoromethyl)-1,1′,2′,5,6,7,8,9,10,11,13a,14,14a,15,16,16a-hexadecahydrospiro[cyclopropa[e]pyrrolo[1,2-a][1,4]diazacyclopentadecine-2,3′-pyrano[2,3-c]quinolin]-6-yl]carbamate] yielded a pEC50 ([1]; HCl salt) of 8.46 and a pIC50 ([2]; HCl salt) of 10.70.

`COCC1(S(=O)(=O)NC(=O)[C@@]23C[C@H]2/C=C\CCCCC[C@H](NC(=O)OCC(C)C)C(=O)N2C[C@@]4(CCc5c(c(C(F)(F)F)nc6ccc(OC)cc56)O4)C[C@H]2C(=O)N3)CC1` [Example 473, 2-methylpropyl [(2R,6S,12Z,13aS,14aR,16aS)-9′-methoxy-14a-({[1-(methoxymethyl)cyclopropyl]sulfonyl}carbamoyl)-5,16-dioxo-5′-(trifluoromethyl)-1,1′,2′,5,6,7,8,9,10,11,13a,14,14a,15,16,16a-hexadecahydrospiro[cyclopropa[e]pyrrolo[1,2-a][1,4]diazacyclopentadecine-2,3′-pyrano[2,3-c]quinolin]-6-yl]carbamate] was tested, and the pEC50 [1] was 8.64 and the pIC50 [2] was 10.51.

`CC(C)[C@H](C)OC(=O)N[C@H]1CCCCC/C=C\[C@@H]2C[C@@]2(C(=O)NS(=O)(=O)C2(C)CC2)NC(=O)[C@@H]2C[C@]3(CCc4c(c(C(F)(F)F)nc5ccc(OCCN6CCOCC6)cc45)O3)CN2C1=O` [Example 474, (2S)-3-methylbutan-2-yl [(2R,6S,12Z,13aS,14aR,16aS)-14a-{[(1-methylcyclopropyl)sulfonyl]carbamoyl}-9′-[2-(morpholin-4-yl)ethoxy]-5,16-dioxo-5′-(trifluoromethyl)-1,1′,2′,5,6,7,8,9,10,11,13a,14,14a,15,16,16a-hexadecahydrospiro[cyclopropa[e]pyrrolo[1,2-a][1,4]diazacyclopentadecine-2,3′-pyrano[2,3-c]quinolin]-6-yl]carbamate] gave a pEC50 [1] of 8.76 and a pIC50 [2] of 10.48.

For `CCCOC(=O)N[C@H]1CCCCC/C=C\[C@@H]2C[C@@]2(C(=O)NS(=O)(=O)C2(C)CC2)NC(=O)[C@@H]2C[C@]3(CCc4c(c(C(F)F)nc5ccc(OC)cc45)O3)CN2C1=O` [Example 475, propyl [(2R,6S,12Z,13aS,14aR,16aS)-5′-(difluoromethyl)-9′-methoxy-14a-{[(1-methylcyclopropyl)sulfonyl]carbamoyl}-5,16-dioxo-1,1′,2′,5,6,7,8,9,10,11,13a,14,14a,15,16,16a-hexadecahydrospiro[cyclopropa[e]pyrrolo[1,2-a][1,4]diazacyclopentadecine-2,3′-pyrano[2,3-c]quinolin]-6-yl]carbamate], the pEC50 ([1]; K+ salt) was 8.62 and the pIC50 ([2]; K+ salt) was 11.30.

`COCC1(S(=O)(=O)NC(=O)[C@@]23C[C@H]2/C=C\CCCCC[C@H](NC(=O)OC(C)(C)C)C(=O)N2C[C@@]4(CCc5c(c(C(F)F)nc6ccc(OC)cc56)O4)C[C@H]2C(=O)N3)CC1` [Example 476, tert-butyl [(2R,6S,12Z,13aS,14aR,16aS)-5′-(difluoromethyl)-9′-methoxy-14a-({[1-(methoxymethyl)cyclopropyl]sulfonyl}carbamoyl)-5,16-dioxo-1,1′,2′,5,6,7,8,9,10,11,13a,14,14a,15,16,16a-hexadecahydrospiro[cyclopropa[e]pyrrolo[1,2-a][1,4]diazacyclopentadecine-2,3′-pyrano[2,3-c]quinolin]-6-yl]carbamate] showed a pEC50 [1] of 8.36 and a pIC50 [2] of 10.92.

Work on `CC[C@H](C)OC(=O)N[C@H]1CCCCC/C=C\[C@@H]2C[C@@]2(C(=O)NS(=O)(=O)C2(COC)CC2)NC(=O)[C@@H]2C[C@]3(CCc4c(c(C(F)F)nc5ccc(OC)cc45)O3)CN2C1=O` [Example 477, (2S)-butan-2-yl [(2R,6S,12Z,13aS,14aR,16aS)-5′-(difluoromethyl)-9′-methoxy-14a-({[1-(methoxymethyl)cyclopropyl]sulfonyl}carbamoyl)-5,16-dioxo-1,1′,2′,5,6,7,8,9,10,11,13a,14,14a,15,16,16a-hexadecahydrospiro[cyclopropa[e]pyrrolo[1,2-a][1,4]diazacyclopentadecine-2,3′-pyrano[2,3-c]quinolin]-6-yl]carbamate] yielded a pEC50 ([1]; K+ salt) of 8.30 and a pIC50 ([2]; K+ salt) of 10.72.

For `COCC1(S(=O)(=O)NC(=O)[C@@]23C[C@H]2/C=C\CCCCC[C@H](NC(=O)O[C@@H](C)C(C)C)C(=O)N2C[C@@]4(CCc5c(c(C(F)F)nc6ccc(OC)cc56)O4)C[C@H]2C(=O)N3)CC1` [Example 478, (2S)-3-methylbutan-2-yl [(2R,6S,12Z,13aS,14aR,16aS)-5′-(difluoromethyl)-9′-methoxy-14a-({[1-(methoxymethyl)cyclopropyl]sulfonyl}carbamoyl)-5,16-dioxo-1,1′,2′,5,6,7,8,9,10,11,13a,14,14a,15,16,16a-hexadecahydrospiro[cyclopropa[e]pyrrolo[1,2-a][1,4]diazacyclopentadecine-2,3′-pyrano[2,3-c]quinolin]-6-yl]carbamate], the pEC50 [1] was 8.24 and the pIC50 [2] was 10.80.
